From ChEMBL document CHEMBL1201862, “PubChem BioAssay data set” (2004) come the findings set out here.

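Step 1: Grow cells in 96-well plates. Step 2: Expose to compound for 48 hours at 5 concentrations. Step 3: Interpolate endpoints linearly; if unreached, use highest concentration. Here, GI50 denotes the concentration required for 50% inhibition of growth.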 Calls of active or inactive are those of the source. Rule as the data show it: active = GI50 up to about 1.1 µM and inactive = higher.

What all share (test): inhibition of tumour cell growth, NCI panel, 48 h
The test system of experiment [1] is T47D.
For experiment [2], the system named is SK-MEL-5.
Experiment [3] concerns EKVX.
The test system of experiment [4] is MOLT-4.
Experiment [5] deals with SN12C.
For experiment [6], the system named is HOP-92.
Experiment [7] concerns NCI-H23.
Experiment [8] deals with NCI-H226.
For experiment [9], the system named is NCI-H460.
Experiment [10] relates to CAKI-1.
Experiment [11] deals with SR.
Experiment [12] concerns TK-10.
Experiment [13] deals with SNB-75.
The test system of experiment [14] is SW-620.
Experiment [15] has as its system MDA-N.
Experiment [16] deals with A549.
In experiment [17] the test system is HCT-116.
The test system of experiment [18] is HL-60.
Experiment [19] has as its system LOX IMVI.

Turning to `CC1=CSC(O)(c2ccc(Cl)cc2)c2noc(=O)n21` (stereo not given), the GI50 in [1] was 54.8 µM (inactive); in experiment [2], 59.6 µM (inactive); in [3], > 100 µM (inactive); in experiment [4] it was > 100 µM (inactive); in experiment [5] it was > 100 µM (inactive); in experiment [6] it was 94.8 µM (inactive). Moreover, the GI50 in [7] was 48.4 µM (inactive); in experiment [8], > 100 µM (inactive); in experiment [9], 51.2 µM (inactive); in experiment [10], > 100 µM (inactive); in [11], 50.7 µM (inactive); in experiment [12], > 100 µM (inactive). Besides, the GI50 in experiment [13] was 61.7 µM (inactive); in experiment [14] it was > 100 µM (inactive); in experiment [15], 88.3 µM (inactive); in experiment [16], > 100 µM (inactive); in [17], 53.5 µM (inactive).
With `O=C(CCSC(CC(=O)c1ccc(Cl)cc1)c1ccc(Cl)cc1)Nc1ccc(Cl)cc1` (stereo not given), the GI50 was 6.03 µM (inactive) in [1]; 15.9 µM (inactive) in [2]; 12.7 µM (inactive) in experiment [3]; 3.01 µM (inactive) in experiment [4]; 12.4 µM (inactive) in experiment [5]; 17.6 µM (inactive) in [6]. Moreover, the GI50 was 16.3 µM (inactive) in experiment [7]; 20.3 µM (inactive) in experiment [8]; 10.2 µM (inactive) in experiment [9]; 4.1 µM (inactive) in [18]; 18.4 µM (inactive) in [10]; 2.91 µM (inactive) in experiment [11]. Further, the GI50 in experiment [19] was 5.83 µM (inactive); in experiment [12], 14.6 µM (inactive); in [13] it was 21.8 µM (inactive); in [14] it was 2.88 µM (inactive); in experiment [15] it was 9.68 µM (inactive); in experiment [16], 14.6 µM (inactive). In addition, the GI50 in experiment [17] is 5.86 µM (inactive).
With `COc1cc(OCc2ccc3nc(-c4ccccc4)c(N)nc3c2)cc(OC)c1OC`, the GI50 was 14.4 µM (inactive) in experiment [1]; 11.3 µM (inactive) in [2]; 19.7 µM (inactive) in experiment [3]; 8.13 µM (inactive) in experiment [4]; 25.7 µM (inactive) in experiment [5]; 11.4 µM (inactive) in [6]. The GI50 in [8] was 21.3 µM (inactive); in experiment [9], 18.7 µM (inactive); in [18] it was 12.4 µM (inactive); in experiment [10] it was 23.4 µM (inactive); in experiment [11] it was 17.9 µM (inactive); in experiment [19], 13.7 µM (inactive). In addition, the GI50 in experiment [12] is 24.1 µM (inactive); in experiment [13] it was 19.2 µM (inactive); in experiment [14], 28.2 µM (inactive); in experiment [15], 15.5 µM (inactive); in experiment [16] it was 20.6 µM (inactive); in [17], 3.61 µM (inactive).
For `Oc1ccc(-c2cc(-c3cc(-c4ccc(O)cc4)no3)on2)cc1`, the GI50 in experiment [1] was 33.1 µM (inactive); in experiment [2], 36.9 µM (inactive); in experiment [3] it was 26.5 µM (inactive); in experiment [4] it was 1.35 µM (inactive); in [6] it was > 100 µM (inactive); in experiment [7] it was > 100 µM (inactive). Also, the GI50 was > 75.9 µM (inactive) in experiment [8]; 41.6 µM (inactive) in [9]; 3.36 µM (inactive) in [18]; 56.6 µM (inactive) in [10]; 19.1 µM (inactive) in experiment [11]; 11.5 µM (inactive) in experiment [19]. Moreover, the GI50 is > 100 µM (inactive) in experiment [12]; > 52.8 µM (inactive) in [13]; > 30.3 µM (inactive) in [14]; 36.9 µM (inactive) in [15]; 50 µM (inactive) in experiment [16]; 45.3 µM (inactive) in [17].
On to `CN(CCN)[C@H](CSSC[C@@H](c1ccccc1O)N(C)CCN)c1ccccc1O`, for which the GI50 in [1] was 26.1 µM (inactive); in experiment [2], 12 µM (inactive); in experiment [3] it was 11.5 µM (inactive); in experiment [4], 4.73 µM (inactive); in experiment [5] it was 9.48 µM (inactive); in experiment [6] it was 17.7 µM (inactive). In addition, the GI50 is 13.8 µM (inactive) in experiment [7]; 11.7 µM (inactive) in [8]; 4.98 µM (inactive) in experiment [9]; 13 µM (inactive) in experiment [10]; 2.87 µM (inactive) in experiment [11]; 4.27 µM (inactive) in [19]. In addition, the GI50 was 13.9 µM (inactive) in experiment [12]; 14.7 µM (inactive) in experiment [13]; 15.7 µM (inactive) in [14]; 11.9 µM (inactive) in experiment [15]; 7.24 µM (inactive) in experiment [16]; 4.12 µM (inactive) in experiment [17].
`COc1cccc(CC(=O)N2CCN(CCCc3ccccc3)CC2)c1`: the GI50 is 22.2 µM (inactive) in experiment [1]; 23.2 µM (inactive) in experiment [2]; 59.6 µM (inactive) in [3]; 54.7 µM (inactive) in [4]; > 100 µM (inactive) in [5]; 25.2 µM (inactive) in experiment [6]. Further, the GI50 in experiment [7] is 36.1 µM (inactive); in [8], > 100 µM (inactive); in experiment [9] it was > 100 µM (inactive); in [18] it was 61.2 µM (inactive); in [10], 80.4 µM (inactive); in [11], 42.1 µM (inactive). Moreover, the GI50 in [19] is > 100 µM (inactive); in [12] it was 78.7 µM (inactive); in experiment [14], > 100 µM (inactive); in [15], 90.8 µM (inactive); in [16], 66.5 µM (inactive); in experiment [17], 65.6 µM (inactive).
Consider `CCN(CC)/[N+]([O-])=N/OCOC`, for which the GI50 in experiment [1], in [2], in [3], in experiment [4], in experiment [5] and in [6] was > 100 µM (inactive) throughout. Moreover, the GI50 in experiment [7], in experiment [8], in experiment [9], in experiment [18], in experiment [10] and in [11] was > 100 µM (inactive) each time. The GI50 in experiment [19], in [12], in [13], in experiment [14], in experiment [15] and in experiment [16] was > 100 µM (inactive) each time. Moreover, the GI50 in experiment [17] was > 100 µM (inactive).
Consider `CN(C)c1ccc(/N=N\c2cccc3ncccc23)cc1`, for which the GI50 in experiment [1] was 1.89 µM (inactive); in experiment [2], 20.4 µM (inactive); in experiment [3], 11.7 µM (inactive); in experiment [4], 26.2 µM (inactive); in experiment [5], 99.8 µM (inactive); in experiment [6] it was 36.9 µM (inactive). Moreover, the GI50 in experiment [7] was > 100 µM (inactive); in experiment [8], > 72.3 µM (inactive); in experiment [9], 26.6 µM (inactive); in [18], 12.8 µM (inactive); in experiment [10], > 93.8 µM (inactive); in experiment [11], 55 µM (inactive). In addition, the GI50 in experiment [19] was 53.2 µM (inactive); in [12], 0.0425 µM (active); in [13], 36.6 µM (inactive); in experiment [14], 62.2 µM (inactive); in experiment [15], 42 µM (inactive); in experiment [16], 63.7 µM (inactive). In addition, the GI50 in experiment [17] is 52.7 µM (inactive).
Regarding `O=C(O)CCCC(=O)Nn1c(Cc2ccc(Cl)cc2)n[nH]c1=O`, the GI50 in experiment [1], in [2], in experiment [3], in experiment [4], in experiment [5] and in experiment [6] was > 100 µM (inactive) throughout. Further, the GI50 in experiment [7] is > 100 µM (inactive); in [8], > 100 µM (inactive); in experiment [18], 26.9 µM (inactive); in [10] it was > 100 µM (inactive); in experiment [11], > 100 µM (inactive); in experiment [19], > 100 µM (inactive). The GI50 in experiment [12] was > 100 µM (inactive); in experiment [13], > 10 µM (inactive); in [14], > 100 µM (inactive); in experiment [15], > 100 µM (inactive); in [16], > 100 µM (inactive); in experiment [17] it was > 100 µM (inactive).
Regarding `CCCC[C@@H](C)/C=C1\CN2CCC[C@H]2[C@@](C)(OCc2ccccc2)[C@@H]1O`, the GI50 is 8.79 µM (inactive) in experiment [1]; > 50 µM (inactive) in experiment [2]; > 31.1 µM (inactive) in experiment [3]; > 41.9 µM (inactive) in [4]; > 50 µM (inactive) in experiment [5]; > 42 µM (inactive) in experiment [6]. Besides, the GI50 in experiment [7] was > 50 µM (inactive); in experiment [8] it was > 50 µM (inactive); in [9] it was > 16.7 µM (inactive); in [10], > 50 µM (inactive); in experiment [11], > 50 µM (inactive); in experiment [19], > 50 µM (inactive). The GI50 in experiment [12] was > 38.5 µM (inactive); in [13], > 32.3 µM (inactive); in experiment [14], > 50 µM (inactive); in [15] it was > 44 µM (inactive); in experiment [16], > 43.7 µM (inactive); in experiment [17], > 50 µM (inactive).
On to `O=c1ccn([C@@H]2C[C@@H]2CO)c(=O)[nH]1`, for which the GI50 in experiment [1], in [2], in experiment [3], in [5], in experiment [6] and in [7] was > 100 µM (inactive) throughout. The GI50 in experiment [8], in experiment [9], in experiment [18], in [10], in [11] and in experiment [19] was > 100 µM (inactive) each time. Further, the GI50 in experiment [12], in [13], in experiment [14], in [15], in experiment [16] and in experiment [17] was > 100 µM (inactive) each time.
